Results on one compound are retold here after publication PMC3705412, “PTP1B Inhibitory and Anti-Inflammatory Effects of Secondary Metabolites Isolated from the Marine-Derived Fungus Penicillium sp. JF-55” (Marine Drugs, 2013).

Assay [1] relates to COX-2-derived PGE2 production in murine peritoneal macrophages. Put plainly: PGE2 production in LPS-stimulated macrophages, ELISA. It counts as cell-based, murine (C57BL/6 mice). The conditions noted are these: Mus musculus, Peritoneal macrophage; pre-treated 12 h, LPS 1 μg/mL 18 h. As for the experimental part: C57BL/6 mice were purchased from Orient Bio Co. (Sungnam, Kyung-Kido, Korea). TG-elicited peritoneal macrophages were harvested four days after intraperitoneal (i.p.) injection of 3 mL of TG [37]. Peritoneal lavage was performed using 8 mL of Hanks’ Balanced Salt Solution containing 10 U/mL heparin. The cells were distributed in Roswell Park Memorial Institute medium (RPMI) supplemented with 10% heat-inactivated FBS, in 6-well tissue culture plates (5 × 10^6 cells/mL). The level of PGE2, TNF-α or IL-1β present in each sample was determined using a commercially available kit from R & D Systems. The assay was performed according to the manufacturer’s instructions. Briefly, murine peritoneal macrophages were cultured in 24-well plates, pre-incubated for 12 h with different concentrations of compounds 1–3, and then stimulated for 18 h with LPS. The cell culture supernatants were then immediately collected after treatment and centrifuged at 13,000× g for 2 min to remove particulate matter. The medium was added to a 96-well plate pre-coated with affinity-purified PGE2-specific polyclonal antibodies or the medium was added to a 96-well plate pre-coated with affinity-purified polyclonal antibodies that were specific to mouse TNF-α or IL-1β. An enzyme-linked polyclonal antibody specific for PGE2, mouse TNF-α or IL-1β was added to the wells for 20 h, followed by a final wash to remove any unbound antibody-enzyme reagent. A substrate solution was added, and the intensity of the color produced, which was measured at 450 nm (the correction wavelength was set at 540 nm or 570 nm), was proportional to the amount of PGE2, TNF-α or IL-1β present.

Assay [2] has as its system NF-κB (p65). Put plainly: Western blotting of NF-κB (p65) nuclear translocation in LPS-stimulated macrophages. It counts as cell-based, murine (C57BL/6 mice). The settings on record: pre-treatment 12 h, LPS 1 μg/mL 1 h. On the procedure: Figure 5 The effects of penstyrylpyrone (1) on the protein expression level of IκB-α phosphorylation, degradation of IκB-α (A), NF-κB translocation (B), and NF-κB DNA binding activity (C) in murine peritoneal macrophages. Murine peritoneal macrophages were pre-treated for 12 h at the indicated concentrations of penstyrylpyrone (1), and stimulated for 1 h with LPS (1 μg/mL). Western blotting analysis of IκB-α and p-IκB-α in the cytoplasm and NF-κB in the nucleus (A, B) were performed. A commercially available NF-κB ELISA (Active Motif) was used to test the nuclear extracts and to determine the degree of NF-κB binding (C). […]
Murine peritoneal macrophages were homogenized (1:20, w:v) in PER-Mammalian Protein Extraction buffer (Pierce Biotechnology, Rockford, IL, USA) containing freshly added protease inhibitor cocktail I (EMD Biosciences, San Diego, CA, USA) and 1 mM phenylmethylsulfonyl fluoride (PMSF). […] The protein concentration was determined using the bicinchoninic acid (BCA) protein assay kit.
Western blotting analysis was performed by lysing the cells in 20 mM Tris-HCl buffer (pH 7.4) containing a protease inhibitor mixture (0.1 mM PMSF, 5 mg/mL aprotinin, 5 mg/mL pepstatin A, and 1 mg/mL chymostatin). The protein concentration was determined using a Lowry protein assay kit (P5626; Sigma Chemical Co., St. Louis, MO, USA). […]

As for `COc1cc(/C=C/c2ccccc2)oc(=O)c1C` [Penstyrylpyrone (1), penstyrylpyrone], the IC50 in assay [1] was 9.35 µM. Also, in assay [2], the “Nuclear p65 protein levels (NF-κB translocation)” value is given as “gradually inhibited”.
